For orientation: melting point means the temperature, or range, at which the solid turns liquid.

The structures appear in SMILES notation.

Take `CS(=O)(=O)N(C(=O)OCc1ccccc1)c1cc(O)ccc1OCc1ccccc1`: the melting point is 138 to 140 °C. The figure for `Cc1ccc2c(n1)N(CCCN1CCCC1)c1ccccc1N(C)C2=O` is 134 to 136 °C; for `Cc1cccc(-c2[nH]c(C(C)C)nc2-c2cccc(-c3ccc4c(c3)CCCS4)c2)n1` it is 115 to 117 °C.

In the case of `Cc1cnc2c(Cl)cnn2c1-c1cccc(C(F)(F)F)c1`, the melting point lay within 195 to 197 °C. In the case of `CSc1cc2c(cc1C(F)(F)F)N(C(=O)Nc1cccc(C(=O)NC3CCN(Cc4ccccc4)C3)c1)CC2` (configuration not stated), the melting point fell in the range of 174 to 175 °C. Then `Cn1nc(-c2cc3c(cc2F)NC(=O)CO3)c(Cl)c1C(F)(F)F`, with 242 °C.

Regarding `Clc1c(CN[C@H]2CC[C@@H](c3ccccc3)CC2)ccn2c(CC3CC3)nnc12`, the melting point was 171 °C. Then `OCCCc1ccc2ccn(C3CCN(CCc4ccc(F)cc4)CC3)c2c1`, with 131 to 133 °C; and `O=C(NC1CCCCC1)c1ccc(-c2ccc3nnn(Cc4ccc5ncccc5c4)c3n2)cc1F`, with 172 to 175 °C; and `CS(=O)(=O)Nc1ccc(C(O)CNC2CCN(c3ccc(CC4SC(=O)NC4=O)cc3)CC2)cn1` (configuration not stated), with 57 to 59 °C.

With `CC(=O)Nc1ncc(CCc2ccc(N)cc2)s1`, the melting point was 218 to 220 °C. Then `CC(=O)c1ccc(C(=C2CC(C)(C)CC(C)(C)C2)c2ccc(O)cc2)cc1`, with 195 to 196 °C. Turning to `COC(=O)COc1cccc(C=Cc2nc(-c3ccccc3)c(-c3ccccc3)o2)c1`, the melting point was 79 to 82 °C.

For `COc1cc(O)c2c(c1O)C1C=CC2C1` (configuration not stated), the melting point was in the range of 151 to 153 °C. `CC(C)(Cc1cccc(Oc2cccc(CC(C)(C)C(=O)O)c2)c1)C(=O)O` returned a melting point of 84 to 85 °C.

As for `COC(=O)C(NC(=O)OCc1ccccc1)OC` (configuration not stated), the melting point was 74 to 75 °C. For the compound `O=C(O)c1ccccc1OCCN1CCC(c2cn(CCCC3OCCO3)c3ccccc23)CC1`, the melting point was 147 to 149 °C. The figure for `COC(=O)/C=C/n1cnc2ccc(C3CC3)cc2c1=O` is 178 °C; for `N#CNC(=NC1CCN(Cc2ccccc2)CC1)N1CCOCC1` it is 163 to 165 °C; for `Cc1ccccc1-n1nnc2cnc3ccccc3c21` it is 140 to 142 °C. Then `COc1ccc(Cc2cnc(N)nc2N)cc1OCCCSc1ccc(NC(C)=O)cc1`, with 175 to 177 °C.

Regarding `CN(NC(=O)c1c(Cl)cccc1Cl)S(=O)(=O)c1ccccc1`, the melting point was 177 to 178 °C.

Turning to `Cc1cccc(-c2ccc3c(c2)c(C(=O)C(=O)NCC(=O)O)cn3Cc2ccc(C(C)(C)C)cc2)c1`, the melting point lay within 108 to 109 °C. The figure for `CC(C)(O)C(=O)Nc1ccc(Nc2ccccc2)cc1` is 171 to 174 °C; for `COC(=O)C1=C(NCc2ccccc2)C(=O)O[C@@H]1C` it is 68 to 70 °C; for `COCOc1ccc(CO[Si](C)(C)C(C)(C)C)c2cccc(C)c12` it is 42 to 43 °C. The figure for `Cc1cc(OCc2ccccc2)c(C)cc1OCCCC(C)(C)C(=O)O` is 104 to 106 °C; for `CCC(O)c1cc2ccccc2cc1CO` (configuration not stated) it is 70 °C; for `COc1ccc(/C=C/C(=O)/C=C/c2ccc(C(F)(F)F)cc2)cc1` it is 144 to 146 °C. The figure for `c1cc(-c2cn([C@H]3CN4CCC3CC4)nn2)ccn1` is 150 °C; for `CC(C)NC(=O)c1ccc(F)c2c1CC(N(CCCc1c[nH]c3ccc(F)cc13)C1CCC1)CO2` (configuration not stated) it is 127 °C.

The compound `Cc1c(C)c2c(c(C)c1NS(C)(=O)=O)CC(C)(C)O2` had a melting point of 159 to 160 °C. The figure for `Cc1ccc(C(=O)c2[nH]c3cc(Cl)ccc3c2CC(=O)O)cc1` is 182 to 184 °C; for `CCCCCCNC1=CC(=O)c2c(OC)ccc(OC)c2C1=O` it is 83 to 84 °C; for `Cc1cc(Oc2ccc(Cl)c(C(F)(F)F)c2)ncc1N` it is 105 to 107 °C. Then `COc1ccc2c(C)c(-c3c(OC)cccc3OC(C)=O)c(=O)oc2c1`, with 125 to 126 °C. In the case of `Cc1c(C)c(N2CCN(c3nc(-c4ccccc4)ns3)CC2)c(C)c2c1OC(C)(C)C2`, the melting point lay in the range of 204 to 205 °C.

`CC(Nc1nc(N)nc(C(F)(F)F)n1)c1ccc(Cl)cc1` (configuration not stated) gave a melting point of 99 °C. Then `CC(C)(C)OC(=O)Nc1ccc(F)c(F)c1C(=O)O`, with 160 °C; and `ON=C(Cn1ccnc1)c1ccc(Cl)cc1Cl`, with 205 to 206 °C. For the compound `CC(C)(C)c1ccc(N(c2ccc(-c3ccc(Nc4ccccc4)cc3)cc2)c2ccc(C(C)(C)C)cc2)cc1`, the melting point fell in the range of 161 to 162 °C.

With `COc1cc(-c2cc(=O)c3c(OC)c(OC)c(OC)c(OC)c3o2)ccc1OCc1ccccc1`, the melting point fell in the range of 109 to 111 °C. Take `COc1cc(-c2cccs2)c(OC)c2c(OC)cc(-c3cccs3)c(OC)c12`: the melting point lay within 234 to 237 °C. The figure for `[N-]=[N+]=NCCCc1cn(S(=O)(=O)c2c(Cl)nc3sccn23)c2ccc(F)cc12` is 84 to 86 °C; for `COC(=O)c1nc(N=C=S)ccc1Oc1nc(OC)cc(OC)n1` it is 116 to 117 °C; for `CCOc1c(-c2ccc(N(C)C)c(O)c2)c(=O)c1=O` it is > 182 °C. Then `Cc1cccc(C2COc3cc(O)c(O)cc3C2)c1` (configuration not stated), with 146 to 148 °C; and `Cc1ccc2c(c1)C(c1ccccc1)CC(NC(=O)Nc1cccc(Cl)c1)C(=O)N2CC(=O)NC(C)(C)C` (configuration not stated), with 282 to 285 °C; and `CCN1CCN(C(C)C(=O)NC2(c3ccc4occc4c3)C(=O)Nc3cc(Cl)cc(Cl)c32)CC1` (single isomer, unassigned; (+)), with 137 to 138 °C. In turn, `Cc1ccc(-c2ccc(C(=O)Nc3ccc4nc(CN5CCCCC5)ccc4c3)cc2)cc1` returned a melting point of 198 to 200 °C. As for `O=C(O)CCC/C=C/c1ccc2ccccc2n1`, the melting point was 142 to 144 °C. The figure for `COc1ccc2c(c1)CCC(CNC(C)=O)C2` (configuration not stated) is 96 to 97 °C; for `Cc1c(C)c([N+](=O)[O-])c(C)c2c1OC(C)(C)C2c1ccc(C(C)C)cc1` (configuration not stated) it is 109 to 110 °C. `Cc1cc(C)c2c(n1)Nc1cc(C)c(C)cc1N(C)C2=O` had a melting point of 225 to 227 °C.

In turn, `COc1ccc(CN(C)CCCc2ccc(NC(=O)c3cccc4c(=O)c5cccc(OC)c5[nH]c34)cc2)cc1OC` showed a melting point of 180 °C. The figure for `O=Cc1ccc(C(=O)Nc2ccc(Cl)cc2)cc1` is 158 °C.

Compound `NCC1CN(c2c(F)cc3c(=O)c(C(=O)O)cn(-c4nc(N)c(F)cc4F)c3c2Cl)C1` came in with a melting point of 249 to 254 °C.

In turn, `CC1CC(=O)NN=C1c1ccc(N2CCNCC2)c(N)c1` (configuration not stated) displayed a melting point of 244 to 245 °C. Then `CC(C)(C)Nc1nc(C#N)c(C#N)nc1N`, with > 250 °C; and `COC(=O)C1=C(C)NC(C)=C(c2nc(CCl)ns2)C1c1cccc([N+](=O)[O-])c1` (configuration not stated), with 205 to 206 °C; and `COC(=O)c1ccc(C(=O)NC(C(=O)N2CCCC2C(=O)NC(C(C)C)C(O)C(F)(F)F)C(C)C)cc1` (mixture of isomers), with 64 to 67 °C. Then `CCCCCCCCCCCCCCCCOc1cc(OC)c([N+](=O)[O-])cc1OC`, with 71 °C; and `CCc1cc(C(=O)c2ccccc2Cl)c(-n2c(C)nnc2CNC(=O)Nc2cccc(C(=O)O)c2)s1`, with 178 to 180 °C; and `Brc1ccc2c(c1)CN(Cc1c[nH]c3ccccc13)C2`, with 188 to 190 °C. The figure for `CCCCCC(=O)NS(=O)(=O)/C=C/c1cc(OCCCC)nn1Cc1ccc(Cl)cc1Cl` is 117 to 119 °C; for `O=C(C=NO)Nc1cc(Cl)cc(Cl)c1` it is 196 to 197 °C; for `S=C=NCCCN1CCC(c2ccccc2)CC1` it is 50 to 55 °C. For the compound `NS(=O)(=O)Oc1cccc(I)c1`, the melting point was in the range of 106 to 108 °C. The figure for `Cc1ccc(S(=O)(=O)N2CC(CO)(CO)C2)cc1` is 148 to 150 °C. The figure for `Cc1nc(Cl)c2c(C)cn(-c3c(Cl)cc(Br)cc3Br)c2n1` is 157 to 159 °C; for `CC(O)(CCCCl)c1ccc(-c2cccc(F)c2)cc1` (configuration not stated) it is 70 to 72 °C; for `Nc1[nH]nc(-c2ccc(F)cc2)c1-c1ccncc1` it is > 250 °C.

As to `Cc1cc(C)c(CN2CCN(C)CC2)c(C)c1C=O`, the melting point amounted to 90 °C. Then `Cc1nc(C)c2c(n1)N(Cc1ccc(-c3ccccc3-c3nnnn3C(c3ccccc3)(c3ccccc3)c3ccccc3)cc1)C(=O)CC2`, with 160 to 161 °C. The compound `N#CC1=C(Nc2cccc(F)c2)CCC1` gave a melting point of 98 to 100 °C. Then `CSc1ccc(C(=O)NN=C2C(=O)Nc3ccc(I)cc32)cc1`, with 298 °C. Then `CNC(=O)c1c(NC(=O)c2cc(C(F)(F)F)nn2-c2ncccc2Cl)ccc2cn[nH]c12`, with 190 to 192 °C; and `Cc1cc(CCCCCOc2cc(Cl)c(-c3nnco3)c(Cl)c2)on1`, with 73 to 74 °C; and `CCOC(=O)CNC(=O)CCc1cc(Cl)ccc1C(=O)CCCNC(=O)CCCNC(C)=O`, with 94 to 96 °C.

`CC(C)C(OCc1ccccc1)[C@H]1[C@H]([N+](=O)[O-])[C@@H](c2ccco2)N[C@@H]1C(=O)NCCC(=O)O` (some centres not stated) displayed a melting point of 70 to 72 °C. Then `Cc1oc(-c2ccc(C(F)(F)F)cc2)nc1CO`, with 98 to 99 °C.

As to `CCOC(=O)c1cnc2sc3c(c2c1O)CCCC3`, the melting point fell in the range of 138 to 140 °C. The figure for `CC(=O)Nc1ccc2c(c1)NC(=O)CC2(C)C` is 273 to 278 °C. Then `COc1ccc(C(=O)C=CC(=O)O)cc1OC`, with 174 to 175 °C; and `COc1ccc(-c2sc(NC(C)=O)nc2C)cc1S(N)(=O)=O`, with 342 °C; and `Cc1nnc2n1-c1sc(CCCN3CCOCC3)cc1C(c1ccccc1Cl)NC2` (configuration not stated), with 135 to 138 °C. `CC(=O)Cn1cnc2c1c(=O)n(CC1CC1)c(=O)n2C1CCCC1` showed a melting point of 155 °C.

The record behind these values is a melting point compilation (Tetko et al.; mined from patent text by program, amines drawn as free bases though some values may be those of a salt).
